Laboratory results: ChEMBL document CHEMBL5321295, “Targeted Degradation of Alpha-Synuclein by Autophagosome-Anchoring Chimera Peptides” (J Med Chem, 2023)
Calls of active or inactive are those of the source. The calls are words filed in the database; no cut-off is given here.

How the values were obtained:
[1] = test system: SH-SY5Y; assay: Cytoprotective activity in human SH-SY5Y cells transfected with alpha-synuclein (unknown origin) assessed as increase in mitochondrial membrane potential level at 100 uM measured after 24 hrs by confocal laser scanning microscopy/flow cytometry (reference value: 45.02 +/- 5.04 %); format: functional
[2] = target: T1, Alpha-synuclein (Homo sapiens, UniProt P37840); assay: Binding affinity to biotinylated recombinant alpha-synuclein (unknown origin) assessed as dissociation constant by BLI assay
[3] = Chemical stability of compound in cell culture medium at 50 uM measured for 24 hrs by HPLC analysis; format: physicochemical
[4] = test system: HEK-293T; assay: Cytotoxicity against wild-type HEK293T cells assessed as cell viability upto 200 uM incubated for 24 hrs by CCK8 assay; format: toxicity, cell-based; conditions: human
[5] = test system: SH-SY5Y; assay: Cytotoxicity against wild-type human SH-SY5Y cells assessed as cell viability upto 200 uM incubated for 24 hrs by CCK8 assay; format: functional, cell-based
[6] = target: T1, Alpha-synuclein; assay: Induction of alpha-synuclein (unknown origin) degradation overexpressed in HEK293T cells infected with adenovirus expressing mCherry-EGFP-LC3B incubated for 24 hrs by immunoblot analysis; format: cell-based
[7] = target: T1, Alpha-synuclein; assay: Induction of alpha-synuclein (unknown origin) degradation overexpressed in HEK293T cells infected with adenovirus expressing mCherry-EGFP-LC3B at 50 uM incubated upto 24 hrs by immunoblot analysis; format: cell-based
[8] = test system: HEK-293T; assay: Downregulation of EIF4H expression in HEK293T cells at 100 uM incubated for 24 hrs by proteomic profiling analysis; format: functional, cell-based; conditions: Homo sapiens
[9] = test system: HEK-293T; assay: Downregulation of MARCKS expression in HEK293T cells at 100 uM incubated for 24 hrs by proteomic profiling analysis; format: functional, cell-based; conditions: Homo sapiens
[10] = target: T1, Alpha-synuclein; assay: Induction of EGFP-fused alpha-synuclein (unknown origin) degradation overexpressed in HEK293T cells assessed as colocalization of alpha-synuclein with mCherry-fused LC3B at 50 uM incubated for 2 hrs by confocal laser scanning microscopy; format: cell-based
[11] = Drug localization in HEK293T cells overexpressing mCherry-fused alpha-synuclein (unknown origin) assessed as colocalization of lysosomes at 50 uM incubated for 2 hrs by MDC staining based confocal laser scanning microscopy; format: ADME, cell-based; conditions: human, hek-293t
[12] = Drug localization in HEK293T cells overexpressing mCherry-fused alpha-synuclein (unknown origin) assessed as puncta formation of alpha-synuclein at 50 uM incubated for 2 hrs by LyTG staining based confocal laser scanning microscopy; format: ADME, cell-based; conditions: human, hek-293t
[13] = target: T1, Alpha-synuclein; assay: Induction of alpha-synuclein (unknown origin) degradation overexpressed in HEK293T cells with LC3B knockdown at 50 uM incubated for 24 hrs by immunoblot analysis; format: cell-based
[14] = target: Microtubule-associated protein 1 light chain 3 beta (Homo sapiens, UniProt Q9GZQ8); assay: Induction of LC3B-mediated autophagy flux in HEK293T cells overexpressing alpha-synuclein (unknown origin) assessed as increase in LAMP1 level upto 100 uM incubated for 4 hrs by immunoblot analysis; format: cell-based
[15] = test system: SH-SY5Y; assay: Cytoprotective activity in human SH-SY5Y cells transfected with alpha-synuclein (unknown origin) assessed as necrotic cells at 100 uM measured after 24 hrs by […] based flow cytometry (reference value: 14.8 %); format: functional
[16] = test system: SH-SY5Y; assay: Cytoprotective activity in human SH-SY5Y cells transfected with alpha-synuclein (unknown origin) assessed as cell viability at 50 uM by CCK8 assay relative to control; format: functional; conditions: read-out: Activity
[17] = test system: SH-SY5Y; assay: Cytoprotective activity in human SH-SY5Y cells transfected with alpha-synuclein (unknown origin) assessed as cell viability at 100 uM by CCK8 assay relative to control; format: functional; conditions: read-out: Activity
[18] = test system: SH-SY5Y; assay: Cytoprotective activity in human SH-SY5Y cells assessed as decrease in CCCP-induced ROS level at 100 uM measured after 24 hrs by DCFH-DA staining based confocal laser scanning microscopy; format: functional, cell-based
[19] = test system: SH-SY5Y; assay: Cytoprotective activity in human SH-SY5Y cells assessed as increase in CCCP-induced mitochondrial membrane potential level at 100 uM measured after 24 hrs by JC-1 staining based confocal laser scanning microscopy; format: functional, cell-based
[20] = test system: Mus musculus; assay: Downregulation of alpha-synuclein level in substantia nigra pars compacta of MPTP-treated C57BL/6 mouse at 50 mg/kg/day, iv treated for 5 days by IHC analysis; format: functional, organism-based; conditions: time 5.0 day
[21] = test system: Mus musculus; assay: Downregulation of alpha-synuclein level in substantia nigra pars compacta of MPTP-treated C57BL/6 mouse at 50 mg/kg/day, iv treated for 5 days by immunoblot analysis; format: functional, organism-based; conditions: time 5.0 day
[22] = test system: Mus musculus; assay: Neuroprotective activity in MPTP-treated C57BL/6 mouse assessed as decrease in impaired neurons in substantia nigra pars compacta at 50 mg/kg/day, iv treated for 5 days by FJB staining based microscopy; format: functional, organism-based; conditions: time 5.0 day
[23] = test system: Mus musculus; assay: Neuroprotective activity in MPTP-treated C57BL/6 mouse assessed as increase in dopaminergic neurons of substantia nigra pars compacta at 50 mg/kg/day, iv treated for 5 days by immunofluorescent staining of tyrosine hydroxylase based microscopy; format: functional, organism-based; conditions: time 5.0 day
[24] = test system: Mus musculus; assay: Downregulation of aggregated alpha-synuclein level in substantia nigra pars compacta of MPTP-treated C57BL/6 mouse at 50 mg/kg/day, iv treated for 5 days by IHC analysis; format: functional, organism-based; conditions: time 5.0 day
[25] = test system: Mus musculus; assay: Neuroprotective activity in MPTP-induced anxiety-like status in C57BL/6 mouse assessed as increase in zone transition number of mouse track at 50 mg/kg/day, iv treated for 5 days measured after 4 days by open field test; format: functional, organism-based; conditions: time 9.0 day
[26] = test system: Mus musculus; assay: Neuroprotective activity in MPTP-induced cognitive impairment in C57BL/6 mouse assessed as increase in distance travelled in target quadrant in probe trial phase at 50 mg/kg/day, iv treated for 5 days measured after 5 to 8 days days by morris water maze test; format: functional, organism-based; conditions: time 10-13 day
[27] = Toxicity in C57BL/6 mouse assessed as dyspnea at 50 to 200 mg/kg/day treated for 5 days; format: organism-based; conditions: in vivo, 120 h, dose 50-200 mg/kg/day, time 5 day
[28] = Toxicity in C57BL/6 mouse assessed as depression in ST segment of cardiac electrophysiology at 200 mg/kg/day treated for 5 days by ECG analysis; format: organism-based; conditions: in vivo, 120 h, time 5 day
[29] = Toxicity in C57BL/6 mouse assessed as change in CKMB level at 50 to 200 mg/kg/day treated for 5 days; format: organism-based; conditions: in vivo, 120 h, dose 50-200 mg/kg/day, time 5 day
[30] = Toxicity in C57BL/6 mouse assessed as change in LDHL level at 50 to 200 mg/kg/day treated for 5 days; format: organism-based; conditions: in vivo, 120 h, dose 50-200 mg/kg/day, time 5 day
[31] = Toxicity in C57BL/6 mouse assessed as histological change in kidney at 50 to 200 mg/kg/day treated for 5 days by H and E staining based analysis; format: organism-based; conditions: in vivo, 120 h, dose 50-200 mg/kg/day, time 5 day

For `CC(C)C[C@H](NC(=O)[C@H](Cc1c[nH]cn1)NC(=O)[C@@H](NC(=O)[C@H](Cc1c[nH]c2ccccc12)NC(=O)[C@H](CC(=O)O)NC(=O)[C@H](CC(=O)O)NC(=O)[C@H](CC(=O)O)NC(=O)CNC(=O)CNC(=O)[C@H](CO)NC(=O)[C@H](CO)NC(=O)CNC(=O)[C@H](CO)NC(=O)CNC(=O)[C@H](CCCNC(=N)N)NC(=O)[C@@H](NC(=O)[C@H](CCCCN)NC(=O)[C@H](CO)NC(=O)CNC(=O)[C@@H](NC(=O)[C@H](Cc1ccc(O)cc1)NC(=O)[C@H](CC(C)C)NC(=O)[C@@H](NC(=O)CN)C(C)C)C(C)C)[C@H](C)O)[C@@H](C)O)C(=O)N[C@@H](CO)C(=O)N[C@@H](CO)C(=O)N[C@@H](Cc1ccc(O)cc1)C(=O)NCC(=O)N[C@@H](CCCNC(=N)N)C(=O)N[C@@H](CCCCN)C(=O)N[C@@H](CCCCN)C(=O)N[C@@H](CCCNC(=N)N)C(=O)N[C@@H](CCCNC(=N)N)C(=O)N[C@@H](CCC(N)=O)C(=O)N[C@@H](CCCNC(=N)N)C(=O)N[C@@H](CCCNC(=N)N)C(=O)N[C@@H](CCCNC(=N)N)C(=O)O`, the Activity [1] was 61.65%, the Kd [2] was 8.83 µM and the Stability [3] was “Stable”. For the same molecule, the Activity [4] was “Non-Toxic”, the Activity [5] was “inactive” and the DC50 [6] was 46.8 µM. For the same molecule, the Activity ([6]; dose <= 200.0 µM) was “Dose-Dependent Effect”, the Activity [7] was “Active” and the Activity [8] was “Active”. The Activity [9] was “Active”, the Activity [10] was “Active” and the Drug uptake [11] was “Active”. The Drug uptake [12] was “Active”, the Activity [13] was “Active” and the Activity [14] was “Active”. The Activity [15] was 4.07%, the viability at 50 µM [16] was 91.8% and the viability at 100 µM [17] was 94.9%. The Activity [18] was “inactive”, the Activity [19] was “inactive” and the Activity [20] was “Active”. For the same molecule, the Activity [21] was “Active”, the Activity [22] was “Active” and the Activity [23] was “Active”. The Activity [24] was “Active”, the Activity [25] was “Active” and the Activity [26] was “Active”. The Activity [27] was “Non-Toxic”, the Activity [28] was “Toxic” and the Activity [29] was “Non-Toxic”. The Activity [30] was “Non-Toxic” and the Activity [31] was “Non-Toxic”.
